We go through one substance from patent US9241976B2, “Use of HDL-related molecules to treat and prevent proinflammatory conditions” (THE REGENTS OF THE UNIVERSITY OF CALIFORNIA, priority 2011, dated 2016).

Experiment [1] deals with APC^min/+ mice. The experiment is described as follows: APC^min/+ mice study, intestinal tumors. The experiment is classed as in vivo. The conditions noted are these: C57BL/6J-APC^min/+ mice; 100 mg/kg/d in mouse chow for 8 weeks. On the procedure: 6-week-old APC^Min/+ male mice on a C57BL/6J background were treated with bHDL 100 mg/kg/day administered in a chow diet. After 8 weeks treatment, mice were sacrificed. The entire intestine was immediately removed, fixed in formalin and 70% ethanol. The intestine was opened and examined under a dissecting microscope to count and measure the tumors.
Six-week-oldAPC^min/+ male mice on a C57BL/6J background were treated with L-4F or sc-4F at 100 mg/kg/d administered in a chow diet. After 8 weeks treatment, mice were sacrificed. The entire intestine was immediately removed, fixed in formalin and 70% ethanol. The intestine was opened and examined under a dissecting microscope to count and measure the tumors.

Experiment [2] deals with VEGF, glucose transporter 1, and aldolase-A. The experiment is described as follows: HIF-1α target gene mRNA, real-time RT-PCR in OV2008 cells. The experiment is classed as cell-based, human. The conditions noted are these: 10 μg/ml pretreatment 1 h. The protocol: Total RNA was extracted from cells by using a PureLink RNA Mini Kit (Invitrogen). The quantity and quality of RNA were assessed by using a SmartSpec 3000 Spectrophotometer (Bio-Rad Laboratories, Hercules, Calif.). cDNA was synthesized by using the High Capacity cDNA Reverse Transcription Kit (Applied Biosystems, Foster City, Calif.) according to the manufacturer's instructions. PCRs were performed by using the CFX96 realtime PCR system (Applied Biosystems). The cycling conditions were as follows: 3 min at 95° C. followed by 40 cycles of 95° C., 10 s; 60° C., 10 s; 72° C., 30 s followed by a final extension at 72° C. for 10 min. Each 25-μl reaction contained 0.4 μg of cDNA, 12.5 μl of SYBR Green qPCR SuperMix (Bio-Rad Laboratories), and 250 nM forward and reverse primers in nuclease-free water. […]
(Quantitative PCR measures a nucleic acid by following its amplification.)

For experiment [3], the system named is ERK1/2. The experiment is described as follows: Insulin-stimulated phosphorylation of ERK1/2 in OV2008 cells, Western blot. The experiment is classed as cell-based, human. The conditions noted are these: 10 μg/ml, insulin 200 nM. The protocol:
(§1) FIGS. 10A-10B. Effect of L-4F on the insulin-stimulated activation of downstream signaling molecules in OV2008 cells. After an overnight starvation, OV2008 cells were treated with L-4F (10 μg/ml) for 1 h, and insulin was added at a final concentration of 200 nM. Cell lysates were collected at various time points and subjected to Western blot analysis. FIG. 10A, L-4F inhibits insulin-stimulated phosphorylation of p70s6 kinase and subsequent HIF-1α expression in OV2008 cells. FIG. 10B, effect of L-4F on insulinstimulated phosphorylation of ERK1/2 and Akt in OV2008 cells.
(§2) Western blot analyses were performed as described previously (Gao et al., 2011). In brief, cell lysates were collected in a lysis buffer containing 0.1 MNaCl, 5 mM EDTA, 50 μM sodium orthovanadate, 1% Triton X-100, and protease inhibitor tablet (Roche Diagnostics, Indianapolis, Ind.) in 50 mM Tris buffer, pH 7.5, loaded onto 4 to 12% Bis-Tris gel (Invitrogen), transferred to polyvinylidene difluoride membrane, and incubated with the appropriate antibodies. […]
On the technique in general: A western blot detects proteins with antibodies after separation by electrophoresis.

In experiment [4] the test system is Akt. The experiment is described as follows: Insulin-stimulated phosphorylation of Akt in OV2008 cells, Western blot. The experiment is classed as cell-based, human. The conditions noted are these: 10 μg/ml, insulin 200 nM. On the procedure:
as §1, §2

Experiment [5] deals with HIF-1α. In words: HIF-1α protein stability with cycloheximide in OV2008 cells. The experiment is classed as cell-based, human. The conditions noted are these: insulin 200 nM, CHX 20 μg/ml, L-4F 10 μg/ml. The protocol:
FIGS. 11A-11B. Effect of L-4F on HIF-1α protein stability in OV2008 cells. FIG. 11A, left, pretreatment of L-4F promotes HIF-1α degradation in OV2008 cells. After an overnight starvation, OV2008 cells were treated with insulin (200 nM) for 3 h, L-4F (10 μg/ml) for 1 h, and CHX (20 μg/ml) for various durations. Cell lysates were collected and subjected to Western blot analysis. […] Right, L-4F treatment promotes HIF-1α degradation in OV2008 cells. After an overnight starvation, OV2008 cells were treated with insulin (200 nM) for 3 h and then treated with L-4F (10 μg/ml) and CHX (20 μg/ml) at the same time. Cell lysates were collected at various time points and subjected to Western blot analysis. […] FIG. 11B, effect of pretreatment of L-4F on proteasome-mediated degradation of HIF-1α in insulin-treated OV2008 cells. After an overnight starvation, OV2008 cells were treated with MG-132 (10 μM) for 3 h, L-4F (10 μg/ml) for 1 h, and insulin (200 nM) for an additional 4 h. Cell lysates were collected and subjected to Western blot analysis.
Western blot analyses were performed as described previously (Gao et al., 2011). […]

Consider “Ac-DWFKAFYDKVAEKFKEAF-NH2 [L-4F, Ac-D-W-F-K-A-F-Y-D-K-V-A-E-K-F-K-E-A-F-NH2]”, for which, in experiment [1], the “numbers of tumors of diameter 1-3 mm” value was 36.8; the “numbers of tumors of diameter >3 mm” value turned out to be 5; the “total tumor numbers in the intestinal tract, percent of the control” value was found to be 60%. Further, the “CoCl2- and insulin-induced increase in mRNA levels of HIF-1α target genes” value in experiment [2] was “abrogated”. Besides, the “insulin-stimulated activation of ERK1/2” value in experiment [3] is given as “inhibited activation”. Further, in experiment [4], the “insulin-stimulated phosphorylation of Akt” value was “no effect on the phosphorylation of Akt, except at 0.5 h”. Besides, in experiment [5], the “degradation of HIF-1α protein” value is reported as “accelerated the degradation”.
